Literature values as cited in patent US20100168176A1, “NOVEL COMPOUNDS, PHARMACEUTICAL COMPOSITIONS CONTAINING SAME, AND METHODS OF USE FOR SAME” (FASGEN LLC, priority 2006, published 2010).

Legend:
viral HIV protease = viral HIV protease (Human immunodeficiency virus type 1 group M subtype B, UniProt P04585); conditions: cited from earlier work
[1] = system: Mycobacterium tuberculosis; conditions: in vitro; cited from earlier work

SMILES: C/C=C/C/C=C/CCC(=O)[C@H]1O[C@H]1C(N)=O [cerulenin, (2S,3R)-2,3-epoxy-4-oxo-7,10 dodecadienoyl amide]
- inhibition of viral HIV protease at (viral HIV protease): 5 mg/mL
- activity against Mycobacterium tuberculosis [1]: no activity was found
